Source: patent US5561042A, “Diamine platinum naphthalimide complexes as antitumor agents” (Cancer Therapy and Research Center, priority 1995, dated 1996)
“Also recorded” adds a separate entry of the source.

Legend:
Lambda DNA = assay: Ethidium bromide displacement, lambda DNA; type: binding; conditions: 1 μM DNA, 1.26 μM ethidium bromide, pH 7.0, read-out: FI50, Lambda DNA
Method: A 10× Binding solution was prepared by combining 0.93 ml of an aqueous NaCl solution (5M), 2.0 ml of an aqueous Tris HCl (500 mM) solution, 0.1 ml of an EDTA solution (500 mM) and 46.97 ml of water. The resultant solution was 93 mM in NaCl, 20 mM in Tris HCl, and 1 mM in EDTA. Stock DNA solution were prepared as follows: Poly (dG·dC)-(dG·dC) (ε254=8.4/mM; 27-7910-02), poly(dA·dT)-(dA·dT) (ε262=6.6/mM; 27-7870-02), and lambda DNA (ε260-7.0/mM; 27-4111-01) were purchased from Pharmacia. Solutions were prepared by resuspending either poly (dG·dC)-(dG·dC) or poly(dA·dT)-(dA·dT)in 1 ml of 10× DNA Binding Solution. Lambda DNA is already in solution as purchased.
Poly (dG·dC)-(dG·dC), poly(dA·dt)-(dA·dt) and lambda DNA concentrations were determined as follows: 980 μl of 10× DNA Binding Solution was pipetted into a 1 ml cuvette. A blank was run on the UV spectrophotometer. 20 μl of the DNA stock of unknown concentration was then added into the cuvette. The sample was then scanned between 210 nm to 500 nm and the absorbance recorded at 254 nm for poly(dG·dC)-(dG·dC), at 262 nm for poly(dA·dT)-(dA·dT) and at 260 nm for lambda DNA. The solution was transferred to a clean tube. This procedure was followed for three different solutions with the absorbance taken as the average of the three. The concentration of poly(dG·dC)-(dG·dC) stock was calculated to be A254 /8.4×1000 (in μM). The concentration of poly(dA·dT)-(dA·dT) stock was calculated to be A262 /6.6×1000 (in μM). The concentration of lambda DNA stock was calculated to be A260 /7.0×1000 (in μM).
The binding of the bis-naphthalimides to DNA and to synthetic polynucleotide duplexes was determined by an ethidium bromide displacement assay that measures the reduction of fluorescence when ethidium bromide is displaced from DNA (Baguley, 1981). The fluorescence intensity of a 3 ml solution containing 9.3 mM NaCl, 2 mM Tris-HCl (pH 7.0), 100 μM EDTA, 1 μM DNA (in nucleotides) and 1.26 μM ethidium bromide in a quartz cuvette was measured at the excitation (546 nm) and emission (600 nm) wavelengths on a Shimadzu RF5000U spectrofluorometer. Graded concentrations of agent were then added and the fluorescence intensity was measured. The concentration of compound required to reduce the fluorescence intensity by 50% of that of control (FI50) was determined. Therefore, the lower the FI50 the stronger the binding affinity a particular compound has for DNA.
The ability of bis-naphthalimides of the present invention and the known anti-cancer agents compound 22 and DMP840, (R,R)-2,2'[1,2-ethanediylbis[imino(1-methyl-2,1-ethanediyl)]]-bis[5-nitro- 1H benz[de]isoquinoline-1,3-(2H)dione]dimethanesulfonate, to bind to DNA and to synthetic oligonucleotide duplexes was measured using an ethidium bromide displacement assay. Ethidium bromide, a known DNA intercalator, has no fluorescence in the absence of DNA; however, fluorescence intensity increases when ethidium bromide binds to DNA. The ethidium bromide displacement assay measures the decrease in fluorescence intensity caused by DNA-bound ethidium bromide with DNA interacting agents.

[1] = tested on: SV40 DNA (Form I, negatively supercoiled); assay: SV40 DNA unwinding / mobility by agarose gel electrophoresis; type: binding; conditions: for effect on SV40 DNA conformation (in words): agarose gel electrophoresis, 37° C.
Excerpt: The model used in this study, negatively supercoiled, closed circular, plasmid SV40 DNA (Form I), undergoes several stages of drug-induced unwinding that are monitored by agarose electrophoresis.
Central to the understanding of compound 21 action was the ability to assess whether the drug was bound irreversibly (presumably covalently) or reversibly. The system used to extract the reversibly bound drug went through several phases of development. The classic phenol/chloroform mixture cannot completely extract all of the drug. However, the phenol/chloroform mixture effectively extracts the drug in the presence of at least 0.1M NaCl.
Three different systems, A, B and D were used to probe the mode of interaction of compound 21 with DNA.
System A: Compound 21 and DNA in TE buffer (10 mM Tris-HCl, pH 7.5 and 1 mM EDTA) without phenol/chloroform.
System B: Compound 21 and DNA in TE buffer with 0.5M NaCl without phenol/chloroform extraction.
System D: Compound 21 and DNA in TE buffer with 0.5M NaCl followed by phenol/chloroform extraction.
In general, SV40 DNA (90% Form I, negatively supercoiled, and 10% Form II, nicked, Gibco BRL) was incubated with graded concentrations of compound 21 at 37° C. for the indicated time periods in the appropriate system. The isolated DNA was then separated by agarose gel electrophoresis (1% Seakem agarose in 1× TAE buffer) in TAE buffer with 80 volts for 2 hours. Gels were stained with ethidium bromide (0.5 μg/ml) for 15 minutes, washed and then recorded with polaroid film while being irradiated with a UV transilluminator (λ=254 nm).

8-(3'-nitro-1',8'-naphthalimide)-3,6-diazaoctylamine dichloroplatinum(II) [Compound 21]
IC50 (Lambda DNA): 235 nM
effect on SV40 DNA conformation (in words) [1]: potent distortion of DNA conformation; also recorded: gradually converts the negatively supercoiled SV40 DNA (Form I) to relaxed Form I
effect on SV40 DNA conformation (in words) ([1]; listed as compound 21): observed instantly; also recorded: without incubation, the effect of compound 21 on DNA can be completely reversed using System D; also recorded: more of the mobility shift is retained, with an actual increase in drug effect at the full 8 hours; also recorded: no change in DNA mobility shift is observed even under system D at 8 hours; also recorded: can be returned to normal mobility after treatment with thiourea; also recorded: reversal of compound 21 on SV40 DNA by removal of compound 21 with phenol/chloroform extraction in 0.5M NaCl; also recorded: no change in mobility after phenol/chloroform, 0.5M NaCl extraction
decrease of the concentration at which form I and II comigrate ([1]; from time zero to 8 hours): 2 fold
time to plateau of irreversible effect on DNA conformation ([1]; time course studies): 6 to 8 h
